The source of these data is US20250064778A1, “GRANULES COMPRISING PROGERININ, AND SACHETS USING SAME” (PRG S&TECH INC., priority 2022, published 2025).

Structures are written as SMILES.

The conditions of data set [1]: cited from earlier work.
A short description of data set [2]: Stability of spray-dried solid dispersions under storage for 2 weeks. Format: physicochemical. Conditions: for Appearance / HPLC results Purity / XRPD: open.
Data set [3] can be described thus: Excipient compatibility of progerinin. The class given is physicochemical. Conditions: mixed with HPMC E3, TPGS and potassium sorbate 1:10, 40° C./75% RH, 2 weeks.
In data set [4] the test system is progeria-induced animal model. Conditions: cited from earlier work.
Another data set deals with progerin. The note with it: cited from earlier work.

`CC1(C)Oc2cc3oc(=O)ccc3cc2C[C@@H]1OC/C=C/c1ccccc1` [progerinin, (7S)-(+)-8,8-dimethyl-7-(3-phenylallyloxy)-7,8-dihydro-6H-pyrano[3,2-g]chromen-2-one]: the “solubility in aqueous media” value in data set [1] (BCS criteria) is recorded as “low solubility”. In data set [1], the solubility in water result is listed as “close to zero”. The Appearance result in data set [2] (25° C./60% RH, after 1 week) was “White”; in data set [2] (40° C./75% RH, after 1 week), “White”. Also, the “HPLC results Purity” value is recorded as 99.85% in data set [2] (25° C./60% RH, after 1 week); 99.85% in data set [2] (25° C./60% RH, after 2 weeks); 99.85% in data set [2] (40° C./75% RH, after 1 week); 99.85% in data set [2] (40° C./75% RH, after 2 weeks). For the same compound, the XRPD entry in data set [2] (25° C./60% RH, after 1 week) is recorded as “Unchanged”; in data set [2] (25° C./60% RH, after 2 weeks), “Unchanged”; in data set [2] (40° C./75% RH, after 1 week) it was “Unchanged”; in data set [2] (40° C./75% RH, after 2 weeks), “Unchanged”. The Initial purity in data set [2] (initial) was 99.85%. Further, the “compatibility with excipients (effect on the drug)” value in data set [3] was “had no effect on the drug”. Further, the survival period entry in data set [4] was “prolonging a survival period”. Further, the suppressing progerin expression entry in the data set on progerin is “excellent effects of suppressing progerin expression”.
